Several values for one entry are separate records, joined by “and”; a condition that tells them apart may be missing. Equal entries are not always repeated.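 Exposure lasted 48 hours, with cells grown in 96-well plates and compounds tested at five concentrations. At the GI50, growth is halved. At the TGI there is no net growth.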
What was measured:
Experiment in all cases: inhibition of tumour cell growth, NCI panel, 48 h
[1] = tested on: DU-145 prostate
[2] = tested on: BT-549 breast
[3] = tested on: HS 578T breast
[4] = tested on: MCF7 breast

Row | Compound | GI50 [1] | TGI [1] | GI50 [2] | TGI [2] | GI50 [3] | TGI [3] | GI50 [4] | TGI [4]
1 | C/C(=N\O)c1cccc(Nc2cc(-n3ccnn3)c3ccccc3n2)c1 | 17.5 µM | 37.2 µM | 18.9 µM | 53.9 µM | 16.4 µM | 87.8 µM | > 100 µM | > 100 µM
2 | CCOC(=O)C1=C(c2ccccc2)N(C)c2ccccc2S1 | – | > 100 µM | – | 66.6 µM | – | 72.3 µM | – | 78.8 µM
3 | COc1ccc(N2Cc3cnc(Nc4ccccc4)nc3N([C@@H]3CC[C@@H](O)C3)C2=O)cc1 | 5.59 µM | > 25 µM | 5.27 µM | > 25 µM | 0.671 µM | 6.2 µM | 16.5 µM | > 25 µM
4 | CCCC(=O)Nc1cc(C(=O)N2C[C@@H]3C[C@]34C2=CC(=O)c2[nH]cc(C)c24)n(COC)c1 | 3.18 µM | 27.3 µM and 20.9 µM | 3 µM | 29.5 µM and 11.3 µM | 4.31 µM | 38.2 µM and 27.1 µM | – | 50 µM and 11.9 µM
5 | CSC(CC(=O)O)C(=O)O (stereo unspecified) | – | > 100 µM | – | > 100 µM | – | > 100 µM | – | > 100 µM
6 | COc1ccc2c(c1)C(=O)c1c-2n(CCCN=[N+]=[N-])c(=O)c2cc(N(C)C)ccc12 | > 100 µM | > 100 µM | 6.15 µM | > 100 µM | 37.5 µM | > 100 µM | > 100 µM | > 100 µM
7 | FC(F)(F)c1cc(-c2nnc3n2N=C(N2CCCC2)CS3)cc(C(F)(F)F)c1 | > 50 µM | > 50 µM | > 50 µM | > 50 µM | 17.9 µM | > 50 µM | > 50 µM | > 50 µM
8 | COc1ccc(-c2cc(=O)c3c(C)cc(C)nc3[nH]2)cc1 | – | > 100 µM | – | 86.7 µM | – | > 100 µM | – | > 100 µM
9 | O=C(O)[C@@H]1[C@H](C(=O)O)[C@H](C(=O)O)C[C@@H]1C(=O)O | – | > 100 µM | – | > 100 µM | – | > 100 µM | – | > 100 µM
10 | COc1cc2c(c(OC)c1OC)-c1ccc(N)c(=O)cc1[C@@H](NC(C)=O)CC2 | 0.0291 µM | 0.0951 µM | 0.0164 µM | 0.0744 µM | 0.0127 µM | > 100 µM | < 0.01 µM | > 100 µM
11 | CCCCS(=O)CCC(N)C(=O)O (stereo unspecified) | – | > 100 µM | – | > 100 µM | – | > 100 µM | – | > 100 µM
12 | COc1ccc(-c2nc3sc(-c4ccc(Cl)cc4)cn3n2)cc1 | > 50 µM | > 50 µM | 43.2 µM | > 50 µM | 2.31 µM | > 50 µM | 2.62 µM | > 50 µM
13 | CCn1c(C(=O)N(C2CC2)C2CC2)cc2c3c(ncn3C)c(Nc3cc(C)n(C)n3)nc21 | > 100 µM | > 100 µM | > 100 µM | > 100 µM | 3.63 µM | > 100 µM | > 100 µM | > 100 µM
14 | O=C(Nc1ccc(F)cc1)c1ccc(NC2=C(Cl)C(=O)N(Cc3ccccc3)C2=O)cc1 | 6.48 µM | 29.8 µM | 3.14 µM | 10.8 µM | 13.2 µM | 62.3 µM | 6.24 µM | > 100 µM
15 | COc1ccc2c(c1)/C(=C\c1cccnc1)C(=O)N2 | 2.52 µM | 21.3 µM | 13.3 µM | 32.3 µM | 31.1 µM | 94.7 µM | 10.9 µM | 53.4 µM
16 | COc1ccccc1/C=C/[N+](=O)[O-] | 1.95 µM | 3.63 µM | 2.09 µM | 4.13 µM | 2.79 µM | 8.83 µM | 2.43 µM | 7.99 µM
17 | CCOC(=O)C1=C(C(=O)c2ccc(C)cc2)C(c2cccc([N+](=O)[O-])c2)C(C(=O)c2ccc(C)cc2)=C(C(=O)OCC)N1 | – | 32.2 µM | – | > 100 µM | – | 63.9 µM | – | > 100 µM
18 | CCc1n(Cc2ccc3ccccc3n2)cc[n+]1Cc1ccc2ccccc2n1 | 1.93 µM | 51.7 µM | 0.278 µM | 11.2 µM | 1.88 µM | 26.1 µM | 0.135 µM | 11.6 µM
19 | CC(C)CNCC(O)COc1ccc(C(C)(C)c2ccc(OCC(O)CNCC(C)C)cc2)cc1 (stereo unspecified) | 2.46 µM | 7.49 µM | 7.82 µM | 21 µM | 5 µM | 21.9 µM | 1.73 µM | 3.48 µM
20 | CCCc1c(CC)c(=N)c2ccccc2n1C | > 100 µM | > 100 µM | 44.2 µM | > 100 µM | > 100 µM | > 100 µM | 30 µM | > 100 µM
21 | CCCCCCCCCCCCCCN | – | > 100 µM | – | > 100 µM | – | > 100 µM | – | > 100 µM
22 | O=C(c1ccc2ccccc2c1)c1c(C(F)(F)F)n([O-])c2cc(F)c(F)cc2[n+]1=O | 1.46 µM | 4.33 µM | 1.89 µM | 4.17 µM | – | – | 3.11 µM | > 100 µM
23 | COc1cc(CCN)c2c(c1OC)SSSSS2 | 0.276 µM | 1.22 µM | 0.793 µM | 2.23 µM | 2.11 µM | 5.17 µM | – | –
